Source: patent US9353152B2, “Induction of the mitochondrial permeability transition” (NewSouth Innovations Pty Limited, priority 2002, dated 2016)
Several values for one entry are separate records, joined by “and”; a condition that tells them apart may be missing. Equal values may be shown once.

How the values were obtained:
MPTP = target: T1, MPTP (Rattus norvegicus, UniProt Q09073); format: biochemical
T1 construct: Mitochondria were isolated from the livers of ˜250 g male Wistar rats; from tissue; host or cells: rat liver mitochondria (male Wistar rats)
T1 sequence (Q09073 2-298 limits assumed): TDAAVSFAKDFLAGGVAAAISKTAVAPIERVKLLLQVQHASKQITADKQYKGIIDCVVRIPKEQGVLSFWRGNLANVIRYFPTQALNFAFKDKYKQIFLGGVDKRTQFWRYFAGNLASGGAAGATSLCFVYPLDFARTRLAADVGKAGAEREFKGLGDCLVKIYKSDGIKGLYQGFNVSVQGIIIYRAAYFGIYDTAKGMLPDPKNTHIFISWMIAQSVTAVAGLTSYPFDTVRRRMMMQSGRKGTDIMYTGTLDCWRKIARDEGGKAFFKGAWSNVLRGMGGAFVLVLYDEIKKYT

[1] = Titration of arsenoxide compounds with DTT; format: physicochemical; settings: GSAO versus Compound 1
[2] = target: T2, mitochondrial permeability transition pore (Rattus norvegicus, UniProt Q09073); format: biochemical; settings: for a given concentration
T2 construct: Mitochondria were isolated from the livers of ˜250 g male Wistar rats; from tissue; host or cells: rat liver mitochondria (male Wistar rats)
T2 sequence (Q09073 2-298 limits assumed): T1 sequence (Q09073 2-298 limits assumed)

BAE cells [3] = assay: Cell proliferation and viability assay (MTT); format: cell-based, bovine
Protocol: (§1) BAE or human pancreatic carcinoma BxPC-3 cells were seeded at a density of 10^3 cells per well into 96 well plates in DMEM containing 10% foetal bovine serum and allowed to adhere for 24 h. Cells were washed and incubated with DMEM containing 10% foetal bovine serum and GSAO or o-GSAO and cultured for a further 48 h. Some BAE cells were arrested for 24 h in medium containing 0.25% serum and cultured for a further 48 h in medium containing 0.25% or 10% serum, in the presence of GSAO or o-GSAO. Viable attached cells were determined using MTT.

[4] = test system: human pancreatic carcinoma BxPC-3 cells; assay: Cell proliferation and viability assay (MTT); format: cell-based; settings: Homo sapiens, BXPC-3; 10% serum, 48 h; read-out: IC50 for proliferation arrest of BxPC-3 cells
Protocol: as §1

[5] = Toxicity of o-GSAO in Balb-C mice; format: in vivo
Protocol: FIG. 22. Toxicity of o-GSAO. Balb-C mice (6-8 week old, 3 per group) were treated subcutaneously with 1 or 10 mg/kg/day of o-GSAO in 0.1 mL of PBS. The data points are the mean±SE of the mice weights.

[6] = Side-effects in Balb-C nude mice bearing BxPC-3 tumours; format: in vivo
Protocol: Female 7 to 9 week old Balb C nude were used (UNSW Biological Resource Centre). Mice were held in groups of 3 to 5 at a 12 h day and night cycle and were given animal chow and water ad libidum. A suspension of 2.5×10^6 BxPC-3 cells in 0.2 mL of PBS was injected subcutaneously in the proximal midline. Tumours were allowed to establish and grow to a size of ˜40 mm^3 after which they were randomised into four groups. Tumour volume was calculated using the relationship, a·b^2·0.52, where a is the longest and b the shortest diameter. Animals were treated with either GSAO or o-GSAO at a dose 1 or 10 mg/kg/day in 0.1 mL of PBS. The compounds were administered subcutaneously at a site distant from the tumour. Tumour volume and animal weight was measured every 2 or 3 days.
Balb-C nude mice bearing ˜40 mm^3 BxPC-3 tumours were randomised into four groups (n=10 or 11 per group) and treated subcutaneously with either GSAO (part A) or o-GSAO (part B) at 1 or 10 mg/kg/day in 0.1 mL of PBS. Parts C and D are the mice weights for the respective groups, where the arrow indicates start of treatment. The data points are the mean±SE of the tumour volumes or mice weights. Treatment with 10 mg/kg o-GSAO (part B) was stopped at day 14 due to necrosis and inflammation at sites of injection in 7 out of 11 mice (3/11 with severe ulcers, 4/11 with medium ulcers).

BAE cells [7] = test system: BAE cells
BAE cells [8] = assay: cells; settings: Bos taurus, read-out: IC50 (μM)*
ANT = target: T3, ANT (Rattus norvegicus, UniProt Q09073); assay: Binding of GSAO-B to ANT (streptavidin pull-down, Western blot); settings: 100 μM GSAO-B, 1 h; competed by 4-fold molar excess of dimercaptopropanol
T3 construct: Mitochondria were isolated from the livers of ˜250 g male Wistar rats; from tissue; host or cells: rat liver mitochondria (male Wistar rats)
T3 sequence (Q09073 2-298 limits assumed): T1 sequence (Q09073 2-298 limits assumed)
Protocol: Rat liver mitochondria were suspended at 1 mg of protein per mL at 25° C. in 3 mM HEPES-KOH, pH 7.0 buffer containing 213 mM mannitol, 71 mM sucrose and 10 mM sodium succinate and incubated with 100 μM GSAO-B in absence or presence of 400 μM 2,3-dimercaptopropanol (Fluka, Buchs, SG, Switzerland) at room temperature on a rotating wheel for 1 h. The labelled mitochondria were washed three times with PBS and sonicated in 0.3 mL of ice-cold 25 mM Tris, pH 7.4 buffer containing 140 mM NaCl, 2.7 mM KCl, 0.5% Triton X-100, 0.05% Tween-20, 10 μM leupeptin, 10 μM aprotinin, 50 μg·mL^−1 […] and 5 mM EDTA. Lysate was clarified by centrifugation at 18000 g for 10 min at 4° C. and incubated with 30 μL of streptavidin-dynabeads (Dynal, Oslo, Norway) for 60 min at 4° C. on a rotating wheel to isolate the biotin-labelled proteins. The beads were washed 5 times with sonication buffer and the biotin-labelled proteins were released from the beads by boiling in 30 μl of SDS-Laemmli buffer for 2 minutes. Samples were resolved on 8-16% gradient iGels under reducing conditions and transferred to PVDF membrane. Proteins were detected by Western blot using a 1:500 dilution of goat anti-human ANT polyclonal antibody (Santa Cruz Biotechnology, Santa Cruz, Calif.) and 1:2000 dilution of rabbit anti-goat peroxidase-conjugated antibodies (Dako, Carpinteria, Calif.).

[9] = 10 mg/kg/day o-GSAO s.c., day 14

## NC(CCC(=O)NC(CSCC(=O)Nc1ccccc1[As](O)O)C(=O)NCC(=O)O)C(=O)O (stereo not drawn) [Compound 1, NH2-Glu-Cys-(CH2CONH—C6H4-o-As{OH}2)-Gly-OH]
MPTP
  MPTP Swelling Rate Increase/GSAO* Mean: 16.3
[1]
  arsenical reactivity (titration with DTT): no significant difference
[2]
  half-time for maximal swelling, times faster compared to GSAO: 3-5 times
BAE cells [3]
  times more effective than GSAO at inhibiting proliferation of BAE cells: ~50 times
BAE cells [3]; 0.25% or 10% serum, 48 h
  selectivity for proliferating versus growth-quiescent endothelial cells: not selective for proliferating (angiogenic) endothelial cells
BAE cells [3]; Bos taurus, 10% serum, 48 h, read-out: IC50 for proliferation arrest of BAE cells
  IC50: 160 ± 30 nM
[4]
  IC50: ~2000 nM
[5]; 1 mg/kg/day s.c., day 1
  Side-effects of o-GSAO administration: nil
[5]; 1 mg/kg/day s.c., day 2
  Side-effects of o-GSAO administration: ruffled fur; mild hyperactivity^b
[5]; 1 mg/kg/day s.c., day 3
  Side-effects of o-GSAO administration: ruffled fur; mild hyperactivity^b
[5]; 1 mg/kg/day s.c., day 4
  Side-effects of o-GSAO administration: ruffled fur; mild hyperactivity^b
[5]; 1 mg/kg/day s.c., day 5
  Side-effects of o-GSAO administration: ruffled fur; hyperactivity; clonic
[5]; 1 mg/kg/day s.c., day 6
  Side-effects of o-GSAO administration: ruffled fur; hyperactivity; clonic
[5]; 1 mg/kg/day s.c., day 7
  Side-effects of o-GSAO administration: ruffled fur; hyperactivity; clonic
[5]; 1 mg/kg/day s.c., day 8
  Side-effects of o-GSAO administration: ruffled fur; hyperactivity^b
[5]; 1 mg/kg/day s.c., day 9
  Side-effects of o-GSAO administration: ruffled fur; mild hyperactivity^b
[5]; 1 mg/kg/day s.c., day 10
  Side-effects of o-GSAO administration: ruffled fur; mild hyperactivity^b
[5]; 1 mg/kg/day s.c., day 11
  Side-effects of o-GSAO administration: ruffled fur; mild hyperactivity^b
[5]; 1 mg/kg/day s.c., day 13
  Side-effects of o-GSAO administration: nil
[5]; 1 mg/kg/day s.c., day 14
  Side-effects of o-GSAO administration: nil
[5]; 10 mg/kg/day s.c., day 1
  Side-effects of o-GSAO administration: ruffled fur; hyperactivity; mild
[5]; 10 mg/kg/day s.c., day 2
  Side-effects of o-GSAO administration: ruffled fur; mild hyperactivity^b
[5]; 10 mg/kg/day s.c., day 3
  Side-effects of o-GSAO administration: ruffled fur; mild hyperactivity^b
[5]; 10 mg/kg/day s.c., day 4
  Side-effects of o-GSAO administration: ruffled fur; mild hyperactivity^b
[5]; 10 mg/kg/day s.c., day 5
  Side-effects of o-GSAO administration: ruffled fur; hyperactivity; clonic
[5]; 10 mg/kg/day s.c., day 6
  Side-effects of o-GSAO administration: ruffled fur; hyperactivity; clonic
[5]; 10 mg/kg/day s.c., day 7
  Side-effects of o-GSAO administration: ruffled fur; hyperactivity; clonic
[5]; 10 mg/kg/day s.c., day 8
  Side-effects of o-GSAO administration: ruffled fur; hyperactivity^b
[5]; 10 mg/kg/day s.c., day 9
  Side-effects of o-GSAO administration: ruffled fur; mild hyperactivity^b
[5]; 10 mg/kg/day s.c., day 10
  Side-effects of o-GSAO administration: ruffled fur; mild hyperactivity^b
[5]; 10 mg/kg/day s.c., day 11
  Side-effects of o-GSAO administration: ruffled fur; mild hyperactivity^b
[5]; 10 mg/kg/day s.c., day 13
  Side-effects of o-GSAO administration: skin necrosis at the injection site
[5]; 10 mg/kg/day s.c., day 14
  Side-effects of o-GSAO administration: skin necrosis at the injection site
[5]; 1 or 10 mg/kg/day s.c., Balb C mice
  weight loss: no weight loss observed
[5]; Balb C mice
  skin effects with repeated injections in the same area: thickening of the skin and occasional necrosis
[6]; 10 mg/kg/day o-GSAO s.c.
  weight loss: some weight loss
[6]; [9]
  mice with medium ulcers: 4/11
  mice with severe ulcers: 3/11
[6]; 10 mg/kg/day o-GSAO s.c., treatment stopped at day 14
  mice with necrosis and inflammation at sites of injection: 7 out of 11 and 7 of 11
[6]; 1 or 10 mg/kg/day s.c.
  behavioural side-effects in Balb C nude mice: not observed
BAE cells [7]
  Fold Increase: 53.2
BAE cells [8]
  IC50: 0.16 µM

## O=[As]c1ccc(NC(=O)CSC[C@H](NC(=O)CC[C@H](NC(=O)CCCCCNC(=O)CCCCCNC(=O)CCCC[C@@H]2SC[C@@H]3NC(=O)N[C@@H]32)C(=O)O)C(=O)NCC(=O)O)cc1 (stereo partly shown) [GSAO-B, 4-(N—(S—(N-(6-((6-((biotinoyl)amino)hexanoyl)amino)hexanoyl)-glutathionyl)acetyl)amino) phenylarsenoxide]
ANT
  labelling of ANT with GSAO-B: Direct interaction
